This test has as its target T1, ΔF508-CFTR (Homo sapiens, UniProt P13569, DEL508-508).
T1 construct: expressed in transfected cells; host or cells: NIH3T3 mouse fibroblasts stably expressing ΔF508-CFTR for the optical, whole-cell and single-channel assays; Fisher rat epithelial (FRT) cells for Ussing chamber follow-up
In words: Assays for ΔF508-CFTR correction and potentiator properties (membrane potential optical and electrophysiological methods). Format: cell-based. Particulars: CFTR modulation; for % Activity: % Efficacy; for EC50: tested using the above methods. The source says: Assays for Detecting and Measuring ΔF508-CFTR Correction and Potentiator Properties of Compounds
A) Membrane Potential Optical Methods for Assaying ΔF508-CFTR Modulation Properties of Compounds
The optical membrane potential assay utilized voltage-sensitive FRET sensors described by Gonzalez and Tsien (See, Gonzales, J. E. and R. Y. Tsien (1995) “Voltage sensing by fluorescence resonance energy transfer in single cells” Biophys J 69 (4): 1272-80, and Gonzalez, J. E. and R. Y. Tsien (1997) “Improved indicators of cell membrane potential that use fluorescence resonance energy transfer” Chem Biol 4 (4): 269-77) in combination with instrumentation for measuring fluorescence changes such as the Voltage/Ion Probe Reader (VIPR) (See, Gonzalez, J. E., K. Oades, et al. (1999) “Cell-based assays and instrumentation for screening ion-channel targets” Drug Discov Today 4 (9): 431-439).
These voltage sensitive assays are based on the change in fluorescence resonant energy transfer (FRET) between the membrane-soluble, voltage-sensitive dye, DiSBAC2 (3), and a fluorescent phospholipid, CC2-DMPE, which is attached to the outer leaflet of the plasma membrane and acts as a FRET donor. Changes in membrane potential (Vm) cause the negatively charged DiSBAC2(3) to redistribute across the plasma membrane and the amount of energy transfer from CC2-DMPE changes accordingly. The changes in fluorescence emission were monitored using VIPR™ II, which is an integrated liquid handler and fluorescent detector designed to conduct cell-based screens in 96- or 384-well microtiter plates.
To identify small molecules that correct the trafficking defect associated with ΔF508-CFTR; a single-addition HTS assay format was developed. The cells were incubated in serum-free medium for 16 hrs at 37° C. in the presence or absence (negative control) of test compound. As a positive control, cells plated in 384-well plates were incubated for 16 hrs at 27° C. to “temperature-correct” ΔF508-CFTR. The cells were subsequently rinsed 3× with Krebs Ringers solution and loaded with the voltage-sensitive dyes. To activate ΔF508-CFTR, […] and the CFTR potentiator, genistein ([…]), were added along with Cl^−-free medium to each well. The addition of Cl^−-free medium promoted Cl^− efflux in response to ΔF508-CFTR activation and the resulting membrane depolarization was optically monitored using the FRET-based voltage-sensor dyes.
To identify potentiators of ΔF508-CFTR, a double-addition HTS assay format was developed. During the first addition, a Cl^−-free medium with or without test compound was added to each well. After 22 sec, a second addition of Cl^−-free medium containing 2-10 µM forskolin was added to activate ΔF508-CFTR. The extracellular Cl^− concentration following both additions was 28 mM, which promoted Cl^− efflux in response to ΔF508-CFTR activation and the resulting membrane depolarization was optically monitored using the FRET-based voltage-sensor dyes.
• Bath Solution #1: (in mM) NaCl 160, KCl 4.5, CaCl2 2, MgCl2 1, HEPES 10, pH 7.4 with NaOH. • Chloride-free bath solution: Chloride salts in Bath Solution #1 are substituted with gluconate salts. • CC2-DMPE: Prepared as a 10 mM stock solution in DMSO and stored at −20° C. • DiSBAC2(3): Prepared as a 10 mM stock in DMSO and stored at −20° C. Cell Culture
NIH3T3 mouse fibroblasts stably expressing ΔF508-CFTR are used for optical measurements of membrane potential. The cells are maintained at 37° C. in 5% CO2 and 90% humidity in Dulbecco's modified Eagle's medium supplemented with 2 mM glutamine, 10% fetal bovine serum, 1×NEAA, β-ME, 1×pen/strep, and 25 mM HEPES in 175 cm^2 culture flasks. For all optical assays, the cells were seeded at 30,000/well in 384-well matrigel-coated plates and cultured for 2 hrs at 37° C. before culturing at 27° C. for 24 hrs. for the potentiator assay. For the correction assays, the cells are cultured at 27° C. or 37° C. with and without compounds for 16-24 hours.

Some results are limits rather than exact numbers.

T1 sequence (P13569 with tags, fused parts or gaps DEL508-508): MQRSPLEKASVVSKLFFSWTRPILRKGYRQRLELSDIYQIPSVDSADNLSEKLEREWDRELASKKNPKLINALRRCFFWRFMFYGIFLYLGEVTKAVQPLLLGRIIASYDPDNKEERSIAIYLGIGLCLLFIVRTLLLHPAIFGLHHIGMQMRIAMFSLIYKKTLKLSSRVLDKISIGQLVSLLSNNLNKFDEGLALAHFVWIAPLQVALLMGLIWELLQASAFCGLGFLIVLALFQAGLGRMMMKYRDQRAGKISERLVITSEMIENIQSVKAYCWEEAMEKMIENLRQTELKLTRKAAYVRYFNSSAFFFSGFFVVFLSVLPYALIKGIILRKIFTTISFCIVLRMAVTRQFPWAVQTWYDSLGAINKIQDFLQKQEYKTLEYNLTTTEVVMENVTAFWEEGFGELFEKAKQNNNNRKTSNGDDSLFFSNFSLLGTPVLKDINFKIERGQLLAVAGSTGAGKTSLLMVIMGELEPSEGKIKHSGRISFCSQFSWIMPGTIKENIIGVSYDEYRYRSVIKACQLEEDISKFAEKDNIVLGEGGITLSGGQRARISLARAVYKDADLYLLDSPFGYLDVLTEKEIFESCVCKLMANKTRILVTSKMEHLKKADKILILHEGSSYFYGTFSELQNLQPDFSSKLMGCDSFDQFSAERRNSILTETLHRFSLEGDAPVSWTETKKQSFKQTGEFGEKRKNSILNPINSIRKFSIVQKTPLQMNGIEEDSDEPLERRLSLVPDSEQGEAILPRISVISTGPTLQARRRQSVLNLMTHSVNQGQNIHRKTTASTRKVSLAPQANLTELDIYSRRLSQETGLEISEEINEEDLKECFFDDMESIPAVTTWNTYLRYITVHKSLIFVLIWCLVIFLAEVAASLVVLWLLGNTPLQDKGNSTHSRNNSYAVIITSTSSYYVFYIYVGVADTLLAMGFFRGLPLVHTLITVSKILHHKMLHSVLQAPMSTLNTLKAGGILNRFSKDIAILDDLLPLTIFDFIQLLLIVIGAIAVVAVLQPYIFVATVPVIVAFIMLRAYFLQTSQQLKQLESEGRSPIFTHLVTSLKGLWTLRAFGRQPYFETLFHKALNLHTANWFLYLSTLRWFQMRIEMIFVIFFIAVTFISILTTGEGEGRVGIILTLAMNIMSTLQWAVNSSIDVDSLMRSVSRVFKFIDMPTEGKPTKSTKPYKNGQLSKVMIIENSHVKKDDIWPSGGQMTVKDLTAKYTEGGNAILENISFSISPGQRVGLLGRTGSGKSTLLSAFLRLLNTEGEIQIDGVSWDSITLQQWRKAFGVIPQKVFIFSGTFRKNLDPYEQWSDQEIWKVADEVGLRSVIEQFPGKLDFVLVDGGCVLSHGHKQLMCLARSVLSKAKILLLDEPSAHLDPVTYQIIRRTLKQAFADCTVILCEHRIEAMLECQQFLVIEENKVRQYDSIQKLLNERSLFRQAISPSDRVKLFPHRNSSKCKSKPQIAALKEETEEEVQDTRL

As for `Cc1nc(NC(=O)COc2ccccc2C(C)C)sc1C` [compound 64], the “% Activity” value is reported as “+++ (“+++” means >100%)” and the EC50 was less than 10 µM.
Consider `O=C(CN1CCCCC1)Nc1ncc(Cc2cccc3ccccc23)s1` [compound 65], for which the “% Activity” value is “++ (“++” means between 25% to 100%)” and the EC50 is 10 to 25 µM.
As for `Cc1ccc(C(=O)Nc2nc(C)c(C)s2)cc1` [compound 66], the “% Activity” value is recorded as “++ (“++” means between 25% to 100%)” and the half-maximal effective concentration (EC50) is 10 to 25 µM.
The matching figures for `Cc1ccc(C(=O)Nc2nc(-c3ccccc3)cs2)cc1` [compound 67]: “++ (“++” means between 25% to 100%)” and 10 to 25 µM.
For `O=C(Nc1nc(-c2ccccc2)c(-c2ccccc2)s1)c1ccccc1` [compound 68], the “% Activity” value is “++ (“++” means between 25% to 100%)” and the EC50 is less than 10 µM.
The like results for `COc1ccccc1-c1csc(NC(=O)c2ccccc2)n1` [compound 69] were, in that order, “+++ (“+++” means >100%)” and 10 to 25 µM.
As for `Cc1cccc(C(=O)Nc2nc(-c3ccccc3)c(-c3ccccc3)s2)c1` [compound 70], the “% Activity” value is listed as “+++ (“+++” means >100%)” and the EC50 was less than 10 µM.
For `Cc1ccccc1C(=O)Nc1nc(-c2ccccc2)c(-c2ccccc2)s1` [compound 71], the “% Activity” value was “++ (“++” means between 25% to 100%)” and the concentration giving a half-maximal response (EC50) is less than 10 µM.
The like results for `COc1ccc(C(=O)Nc2nc(-c3ccccc3)c(-c3ccccc3)s2)cc1` [compound 72] were, in that order, “+++ (“+++” means >100%)” and less than 10 µM.
The matching figures for `O=C(Nc1nc(-c2ccccc2)c(-c2ccccc2)s1)c1ccc(Cl)c(Cl)c1` [compound 73]: “++ (“++” means between 25% to 100%)” and 10 to 25 µM.
The like results for `O=C(Nc1nc(-c2ccccc2)c(-c2ccccc2)s1)c1ccc(Cl)cc1` [compound 74] were, in that order, “++ (“++” means between 25% to 100%)” and 10 to 25 µM.
As for `Cc1ccccc1C(=O)Nc1nc(-c2ccccc2)cs1` [compound 75], the “% Activity” value was “++ (“++” means between 25% to 100%)” and the EC50 was 10 to 25 µM.
With `COc1ccccc1C(=O)Nc1nc(-c2ccccc2)cs1` [compound 76], the “% Activity” value is reported as “+++ (“+++” means >100%)” and the half-maximal effective concentration (EC50) is 10 to 25 µM.
The like results for `O=C(Nc1nc(-c2ccccc2)cs1)c1ccccc1Cl` [compound 77] were, in that order, “++ (“++” means between 25% to 100%)” and 10 to 25 µM.
As for `COc1ccc(C(=O)Nc2nc(-c3ccccc3)cs2)cc1` [compound 78], the “% Activity” value is reported as “++ (“++” means between 25% to 100%)” and the 50% effective concentration (EC50) was 10 to 25 µM.
The like results for `COc1ccccc1C(=O)Nc1nc(-c2ccccc2OC)cs1` [compound 79] were, in that order, “++ (“++” means between 25% to 100%)” and 10 to 25 µM.
Take `COc1cccc(-c2csc(NC(=O)c3ccccc3OC)n2)c1` [compound 80]: the “% Activity” value is “++ (“++” means between 25% to 100%)” and the EC50 lay within 10 to 25 µM.
The like results for `COc1cccc(-c2csc(NC(=O)c3ccccc3)n2)c1` [compound 81] were, in that order, “++ (“++” means between 25% to 100%)” and 10 to 25 µM.
The like results for `COc1cccc(C(=O)Nc2nc(-c3cccc(OC)c3)cs2)c1` [compound 82] were, in that order, “++ (“++” means between 25% to 100%)” and 10 to 25 µM.
The matching figures for `COc1cccc(-c2csc(NC(=O)c3ccc(C)cc3)n2)c1` [compound 83]: “+++ (“+++” means >100%)” and 10 to 25 µM.
Take `COc1ccc(C(=O)Nc2nc(-c3cccc(OC)c3)cs2)cc1` [compound 84]: the “% Activity” value was “++ (“++” means between 25% to 100%)” and the EC50 fell in the range of 10 to 25 µM.
As for `CC(C)C(=O)Nc1nc(-c2ccccc2)cs1` [compound 85], the “% Activity” value was “++ (“++” means between 25% to 100%)” and the EC50 lay within 10 to 25 µM.
Regarding `CC(C)CC(=O)Nc1nc(-c2ccccc2)cs1` [compound 86], the “% Activity” value is on record as “++ (“++” means between 25% to 100%)” and the EC50 is 10 to 25 µM.
For the compound `CC(C)(C)C(=O)Nc1nc(-c2ccccc2)cs1` [compound 87], the “% Activity” value is “++ (“++” means between 25% to 100%)” and the EC50 was 10 to 25 µM.
For the compound `Cc1cccc(C(=O)Nc2nc(-c3ccccc3)cs2)c1` [compound 88], the “% Activity” value is listed as “+++ (“+++” means >100%)” and the half-maximal effective concentration (EC50) fell in the range of 10 to 25 µM.
The like results for `O=C(Nc1ncc(Cc2ccccc2)s1)C1c2ccccc2Oc2ccccc21` [compound 89] were, in that order, “+++ (“+++” means >100%)” and less than 10 µM.
The like results for `O=C(Nc1ncc(Cc2ccccc2Cl)s1)C1c2ccccc2Oc2ccccc21` [compound 90] were, in that order, “+++ (“+++” means >100%)” and less than 10 µM.
The like results for `O=C(Nc1ncc(Cc2ccccc2Cl)s1)C(c1ccccc1)C1CCCCC1` (centres unmarked) [compound 91] were, in that order, “+++ (“+++” means >100%)” and less than 10 µM.
Take `O=C(Nc1ncc(Cc2ccccc2)o1)C(c1ccccc1)C1CCCCC1` (centres unmarked) [compound 92]: the “% Activity” value is “++ (“++” means between 25% to 100%)” and the half-maximal effective concentration (EC50) is less than 10 µM.
The like results for `O=C(Nc1ncc(Cc2ccccc2)s1)C1c2ccccc2-c2ccccc21` [compound 93] were, in that order, “+++ (“+++” means >100%)” and less than 10 µM.
The matching figures for `O=C(Nc1ncc(Cc2ccccc2Cl)s1)C(c1ccc(Cl)cc1)c1ccc(Cl)cc1` [compound 95]: “++ (“++” means between 25% to 100%)” and less than 10 µM.
The like results for `CCC(C(=O)Nc1ncc(Cc2ccccc2)s1)c1ccccc1` (centres unmarked) [compound 96] were, in that order, “++ (“++” means between 25% to 100%)” and 10 to 25 µM.
`CCC(C(=O)Nc1ncc(Cc2ccccc2Cl)s1)c1ccccc1` (centres unmarked) [compound 97]: the “% Activity” value is given as “+++ (“+++” means >100%)” and the EC50 is less than 10 µM.
Turning to `CCC(C)C(C(=O)Nc1ncc(Cc2ccccc2)s1)c1ccccc1` (centres unmarked) [compound 98], the “% Activity” value is reported as “++ (“++” means between 25% to 100%)” and the EC50 is less than 10 µM.
With `CCC(C)C(C(=O)Nc1ncc(Cc2ccccc2Cl)s1)c1ccccc1` (centres unmarked) [compound 99], the “% Activity” value was “+++ (“+++” means >100%)” and the 50% effective concentration (EC50) was less than 10 µM.
In the case of `CCC(C)C(C(=O)Nc1ncc(Cc2ccccc2)o1)c1ccccc1` (centres unmarked) [compound 100], the “% Activity” value is given as “++ (“++” means between 25% to 100%)” and the EC50 fell in the range of 10 to 25 µM.
In the case of `O=C(Nc1ncc(Cc2ccccc2)s1)C(c1ccccc1)C1CCCC1` (centres unmarked) [compound 101], the “% Activity” value was “++ (“++” means between 25% to 100%)” and the EC50 was less than 10 µM.
For the compound `O=C(Nc1ncc(Cc2ccccc2Cl)s1)C(c1ccccc1)C1CCCC1` (centres unmarked) [compound 102], the “% Activity” value is “+++ (“+++” means >100%)” and the EC50 is less than 10 µM.
The matching figures for `CC(C)C(C(=O)Nc1ncc(Cc2ccccc2Cl)s1)c1ccccc1` (centres unmarked) [compound 103]: “+++ (“+++” means >100%)” and less than 10 µM.
The like results for `O=C(Nc1nc(-c2ccccc2)c(-c2ccccc2)s1)c1ccccc1Cl` [compound 104] were, in that order, “++ (“++” means between 25% to 100%)” and less than 10 µM.

These data come from patent US9249131B2, “Modulators of ATP-binding cassette transporters” (Vertex Pharmaceuticals Incorporated, priority 2003, dated 2016).
